Measured values reported in patent US9540615B2, “Combined chemical and genetic approaches for generation of induced pluripotent stem cells” (The Scripps Research Institute, priority 2008, dated 2017).
“Also recorded” adds a separate entry of the source.

Experiments:
[1] = tested on: 129 MEFs transduced with OK (Oct4 and Klf4); test: Screen for iPSC generation from OK-transduced 129 MEFs (ESC-like colony morphology, ALP staining); type: cell-based, mouse; details: in the absence of BIX
Protocol: Unmodified MEFs derived from E13-14 embryos of the 129 mice were used for the initial screen. MEFs were plated on Matrigel at 3.5×10^4 cells/well of a 6-well plate and transduced with OK (retroviral vectors expressing Oct4 and Klf4) alone. Within 14-21 days, treated cells were assessed for the appearance of colonies that had the characteristic embryonic stem cell (ESC), colony morphology and were positive for the pluripotency marker alkaline phosphatase (ALP). Such OK-transduced cells generated only a few small non-compact colonies, which were weakly positive for ALP expression. These colonies initially appeared within 21 days after viral transduction and were difficult to expand. Therefore, such assay system offered a clean background for the identification of small molecules having desirable reprogramming inducing activity. Using this system, compounds from a library of around 2000 known small molecules (see Experimental Procedures below) were screened and were identified as hits when they induced the appearance of ESC colonies that were strongly positive for ALP within 14-21 days after treatment. This image-based method provided a more accurate assessment of reprogramming as compared to homogenous reporter-based assay. BIX appeared to have the strongest effect with reproducible induction of more than 1-2 compact ESC-like colonies with high ALP expression. We observed that when MEFs were treated with BIX after OK viral transduction, compact colonies with strong ALP expression could be readily detected within approximately 14-21 days. These cells were also positive for Nanog, Oct4 and SSEA-1 expression. […] However, the reprogramming efficiency in MEFs transduced with OK and treated with BIX was still low, about 2 colonies/3.5×10^4 cells, in comparison to the four factor-induced reprogramming of MEFs or the OK/BIX NPC reprogramming (Shi, Y. et al., Cell Stem Cell, 2:525-528 (2008)). Therefore, we conducted a second screen using a similar protocol, but where BIX was added to the basal media after OK viral transduction. This provided a more permissive platform to identify new small molecules that could further improve reprogramming efficiency. More importantly, this second screen could facilitate discovery of small molecules that impact reprogramming in a more specific manner, for example by acting on signal transduction pathways rather than on histone or DNA modifying enzymes. In this second screen, we again assayed the library of around 2000 known small molecules (see Experimental Procedures), and confirmed two compounds that were able to act in a synergistic manner with BIX to improve reprogramming based on the criteria of the screen. […] Therefore, RG108 was not pursued further for this study. […]

[2] = tested on: OG2 MEFs transduced with OK (Oct4 and Klf4); test: iPSC generation from OK-transduced OG2 MEFs (GFP+ colonies), including second synergist screen with BIX; type: cell-based, mouse; details: for effect on reprogramming of OK transduced MEFs in the second screen: in the presence of 1 μM BIX, FIG. 3: 0.04 μM RG108, 2 μM BayK; for outcome in second synergist screen: 1 μM BIX plus individual compound at 0.5-2 μM, not further followed up
Protocol: Primary 129S2/SvPasCrlf (primary screen) or ROSA26^+/−/OG2^+/− (secondary screen) MEFs were plated onto Matrigel (1:50; BD Biosciences, Bedford, Mass.) coated dishes at a density of 3.5×10^4 cells per well of a 6-well plate. Twenty-four hours later, these cells were transduced overnight with defined retroviruses at 37° C., 5% CO2. Twelve to fourteen hours later, the media on the transduced cells was changed to mESC medium [Knockout DMEM, 10% ES-qualified FBS, 10% Knockout serum replacement, 1% Glutamax, 1% Non-essential amino acids, penicillin/streptomycin, 0.1 mM β-mercaptoethanol, 1% EmbryoMax ESC Qualified Nucleosides (Millipore, Temecula, Calif.), and 10^3 U/ml LIF (Millipore)] (all products were from Invitrogen, Carlsbad, Calif., except where mentioned). On that same day, individual small molecules from our known drug collection were added to the cells at a range between 0.5 and 2 μM. Compound treatment was continued for 10-14 days; the cells were fixed and stained on day 14-21 using a standard ALP detection kit (Millipore). For the second screen, 1 μM BIX was added to the mESC medium 1 day after transduction. Five days later, in addition to 1 μM BIX, individual small molecule from the known drug collection was added to each well, at a range between 0.5 and 2 μM. Mouse ESC media with defined small molecules was refreshed every three days until colonies with a similar morphology to mESCs were observed, which was usually between 14-21 days after transduction. […] Further characterization studies and repeats were carried either on primary 129S2/SvPasCrlf or ROSA26^+/−/OG2^+/− MEFs. When ROSA26^+/−/OG2^+/− MEFs were used, the iPSC colonies could also be identified through GFP expression, as a marker of Oct4 expression. Once iPSC colonies were identified, they were picked for expansion on MEF feeder cells in mESC medium.

mES R1 cells = test: Proliferation assay; type: cell-based, mouse; details: 2 μM BayK, 1 μM BIX or both; 15, 24 and 48 hours; compared to DMSO, n=3
Protocol: mES R1 cells were plated onto gelatin-coated 6-well plates at a density of 2×10^5 cells/well in complete mES cell media. Upon cell attachment, app. 12 hours, the cells were treated either with DMSO, 1 μM BIX, 2 μM BayK, and a combination of both, in triplicate. At 15, 24 and 48 hours, the cells were detached using trypsin, and counted using a hemocytometer. Trypan blue (Sigma-Aldrich, St. Louis, Mo.) was used for dead cell exclusion.

[3] = tested on: Sox2 expression in OG2 MEFs; test: Assessment of SOX2 expression after compound treatment (semi-quantitative RT-PCR); type: cell-based, mouse; details: 2 μM BayK alone or with 1 μM BIX, 6 days
Protocol: OG2^+/−/ROSA26^+/− MEFs were plated onto 6-well plate at a density of 3.4×10^4 cells per well. On the following day, the cells were treated with DMSO, 1 μM BIX, 2 μM BayK, and a combination of both, in triplicate, for 6 days. The media was refreshed at day 3. RNA from each well was then isolated using the RNAeasy Mini Kit (Quiagen). Reverse transcription of the RNA was performed using the iScript™cDNA Synthesis Kit (BioRad, Hercules, Calif.). Amplification of endogenous Sox2 was done using primers previously published (Takahashi, K., Okita, K., Nakagawa, M., and Yamanaka, S. (2007). Induction of pluripotent stem cells from fibroblast cultures. Nat Protoc 2, 3081-3089; Takahashi, K., and Yamanaka, S. (2006). Induction of pluripotent stem cells from mouse embryonic and adult fibroblast cultures by defined factors. Cell 126, 663-676) with Platinum PCR SuperMix (Invitrogen) on a Mastercycler® ep gradient PCR machine (Eppendorf).

cellular reprogramming = test: Enhancement of cellular reprogramming by nuclear receptor ligands; type: cell-based
Mouse fibroblasts = test: Induction of pluripotency by incubation of fibroblasts with poly-Arg transcription factor proteins; type: cell-based; details: agent added during protein-induced reprogramming
Protocol: Mouse fibroblasts were grown in mESC medium supplemented with 8 μg/ml of either Oct4/Sox2/Klf4 or Oct4/Sox2/Klf4/Myc (all proteins comprising poly-Arg as described above) for 6-8 hours, washed, and incubated for 2-3 days in mESC media without the above-listed transcription factors. This (4-12 hours with, 1-3 days without) was repeated a number (1, 2, 3, 4, or more) of times and then the cells were cultures in mESC for two weeks.

non-iPS cells = test: MEK inhibitor applied at late stage of reprogramming as selection: growth of non-iPS cells; type: cell-based, mouse; details: late stage of reprogramming (after Oct4-GFP activation)
Text: (§1) Finally, we observed that the application of a specific small molecule inhibitor of MEK, PD0325901, to late stage of reprogramming (e.g. after Oct4-GFP activation) can serve as an excellent selection strategy for generating iPS cells. Due to the very low efficiency of reprogramming, iPS cells are typically selected out by utilizing reporter (e.g. Neo/Puro or GFP) that is under control of the regulatory elements of a pluripotency marker using genetically modified somatic cell lines, or manually picked out based on cell morphology. While the later method applicable to genetically unmodified cells is better suited for ultimate clinical application of iPS cells, it is a much more tedious and less reliable technique that typically requires picking and propagating over several passages many colonies, only a small fraction of which would become true iPS cells efficiently. This is partly because that large percentage of similarly looking colonies may be partially reprogrammed cells and/or simply transformed cells, which grow rapidly and may interfere with growth and reprogramming of iPS cells. Consequently, having an alternative selection strategy for genetically unmodified cells would be highly desirable.

iPS cells = test: MEK inhibitor applied at late stage of reprogramming as selection: growth and stable reprogramming of iPS cells; type: cell-based, mouse; details: late stage of reprogramming (after Oct4-GFP activation)
Text: as §1

## COC(=O)C1=C(C)NC(C)=C([N+](=O)[O-])C1c1ccccc1C(F)(F)F (stereo not shown) [BayK]
[1]
  reprogramming activity on OK-transduced MEFs: no observable reprogramming activity
[2]; compound alone, in the absence of BIX (data not shown)
  reprogramming efficiency versus OK-transduced MEF control: did not increase reprogramming efficiency above OK-transduced MEF control
[2]
  effect on reprogramming of OK transduced MEFs in the second screen: strongest effect in the screen aside from known DNA/histone modifiers
mES R1 cells
  proliferation of mES cells (cell number): No significant difference; also recorded: does not lead to a change in proliferation
[3]
  SOX2 expression: does not induce SOX2 expression

## C=C(c1ccc(C(=O)O)cc1)c1cc2c(cc1C)C(C)(C)CCC2(C)C [Bexarotene]
Cellular reprogramming; at 3 μM
  cellular reprogramming: enhance cellular reprogramming

## Cc1c[nH]c(-c2cnc(NCCNc3ccc(C#N)cn3)nc2-c2ccc(Cl)cc2Cl)n1 [CHIR99021]
Mouse fibroblasts
  efficiency and speed of development of pluripotent cells: improved efficiency and speed of development of pluripotent cells

## CC(C)C[C@H](NC(=O)OCC1c2ccccc2-c2ccccc21)C(=O)O [Fmoc-Leu]
Cellular reprogramming; at 5 μM
  cellular reprogramming: enhance cellular reprogramming

## CCN(CC)CCCCNc1ncc2cc(-c3cc(OC)cc(OC)c3)c(NC(=O)NC(C)(C)C)nc2n1 [PD173074]
[2]
  outcome in second synergist screen: primary hits

## O=C(NOC[C@H](O)CO)c1ccc(F)c(F)c1Nc1ccc(I)cc1F [PD0325901]
non-iPS cells
  growth of non-iPS cells: inhibits growth of non-iPS cells
iPS cells
  growth and stable reprogramming of iPS cells: effectively promotes growth and stable reprogramming of iPS cells
Mouse fibroblasts
  efficiency and speed of development of pluripotent cells: improved efficiency and speed of development of pluripotent cells

## O=C(O)C(Cc1c[nH]c2ccccc12)N1C(=O)c2ccccc2C1=O (stereo not shown) [RG108]
[2]
  effect on reprogramming of OK transduced MEFs in the second screen: enhanced reprogramming of OK transduced MEFs in the presence of BIX

## NC(=O)c1ccc(-c2nc(-c3ccc4c(c3)OCO4)c(-c3ccccn3)[nH]2)cc1 [SB431542]
Mouse fibroblasts
  efficiency and speed of development of pluripotent cells: improved efficiency and speed of development of pluripotent cells

## Cc1cc(Nc2ncc3c(n2)N(C)C(=O)N(c2cc(NC(=O)c4cccc(C(F)(F)F)c4)ccc2C)C3)n(C)n1 [pluripotin]
[2]
  outcome in second synergist screen: primary hits

## c1nc2nc(Nc3ccc(N4CCOCC4)cc3)nc(NC3CCCCC3)c2[nH]1 [reversine]
[2]
  outcome in second synergist screen: primary hits
